Source: patent US6423689B1, “Peptidyl calcium channel blockers” (Warner-Lambert Company, priority 1997, dated 2002)
*1 amine or outer side, *2 acyl side, *3 side chain or, on linkers, in order; H or OH if unused. Where a SMILES comes first, the peptide text is derived from it. The star is where a group is joined. CO = O=C([*:1])[*:2]; Bn = c1ccc(C*)cc1; OtBu = CC(C)(C)O*

Target: T1, N-type Ca2+ channels in IMR-32 cells (Homo sapiens, UniProt Q00975)
T1 construct: host or cells: IMR-32 cells, differentiated with dibutyryl cAMP and bromodeoxyuridine
Experiment: Inhibition of N-type calcium flux in IMR-32 cells (Indo-1 fluorescence, nitrendipine present)
Assay type: cell-based
Conditions: for IC50: IMR-32 cells, 5 μM nitrendipine, K+ depolarization; for inhibition at 1 µM / inhibition at 10 µM: IMR-32
Procedure, shortened: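 With L-type flux blocked by 5 μM nitrendipine, N-type Ca2+ entry was read as the Indo-1 emission ratio (400/490 nm, excitation 350 nm) at 30° C after KCl depolarization.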

T1 sequence (Q00975 whole entry): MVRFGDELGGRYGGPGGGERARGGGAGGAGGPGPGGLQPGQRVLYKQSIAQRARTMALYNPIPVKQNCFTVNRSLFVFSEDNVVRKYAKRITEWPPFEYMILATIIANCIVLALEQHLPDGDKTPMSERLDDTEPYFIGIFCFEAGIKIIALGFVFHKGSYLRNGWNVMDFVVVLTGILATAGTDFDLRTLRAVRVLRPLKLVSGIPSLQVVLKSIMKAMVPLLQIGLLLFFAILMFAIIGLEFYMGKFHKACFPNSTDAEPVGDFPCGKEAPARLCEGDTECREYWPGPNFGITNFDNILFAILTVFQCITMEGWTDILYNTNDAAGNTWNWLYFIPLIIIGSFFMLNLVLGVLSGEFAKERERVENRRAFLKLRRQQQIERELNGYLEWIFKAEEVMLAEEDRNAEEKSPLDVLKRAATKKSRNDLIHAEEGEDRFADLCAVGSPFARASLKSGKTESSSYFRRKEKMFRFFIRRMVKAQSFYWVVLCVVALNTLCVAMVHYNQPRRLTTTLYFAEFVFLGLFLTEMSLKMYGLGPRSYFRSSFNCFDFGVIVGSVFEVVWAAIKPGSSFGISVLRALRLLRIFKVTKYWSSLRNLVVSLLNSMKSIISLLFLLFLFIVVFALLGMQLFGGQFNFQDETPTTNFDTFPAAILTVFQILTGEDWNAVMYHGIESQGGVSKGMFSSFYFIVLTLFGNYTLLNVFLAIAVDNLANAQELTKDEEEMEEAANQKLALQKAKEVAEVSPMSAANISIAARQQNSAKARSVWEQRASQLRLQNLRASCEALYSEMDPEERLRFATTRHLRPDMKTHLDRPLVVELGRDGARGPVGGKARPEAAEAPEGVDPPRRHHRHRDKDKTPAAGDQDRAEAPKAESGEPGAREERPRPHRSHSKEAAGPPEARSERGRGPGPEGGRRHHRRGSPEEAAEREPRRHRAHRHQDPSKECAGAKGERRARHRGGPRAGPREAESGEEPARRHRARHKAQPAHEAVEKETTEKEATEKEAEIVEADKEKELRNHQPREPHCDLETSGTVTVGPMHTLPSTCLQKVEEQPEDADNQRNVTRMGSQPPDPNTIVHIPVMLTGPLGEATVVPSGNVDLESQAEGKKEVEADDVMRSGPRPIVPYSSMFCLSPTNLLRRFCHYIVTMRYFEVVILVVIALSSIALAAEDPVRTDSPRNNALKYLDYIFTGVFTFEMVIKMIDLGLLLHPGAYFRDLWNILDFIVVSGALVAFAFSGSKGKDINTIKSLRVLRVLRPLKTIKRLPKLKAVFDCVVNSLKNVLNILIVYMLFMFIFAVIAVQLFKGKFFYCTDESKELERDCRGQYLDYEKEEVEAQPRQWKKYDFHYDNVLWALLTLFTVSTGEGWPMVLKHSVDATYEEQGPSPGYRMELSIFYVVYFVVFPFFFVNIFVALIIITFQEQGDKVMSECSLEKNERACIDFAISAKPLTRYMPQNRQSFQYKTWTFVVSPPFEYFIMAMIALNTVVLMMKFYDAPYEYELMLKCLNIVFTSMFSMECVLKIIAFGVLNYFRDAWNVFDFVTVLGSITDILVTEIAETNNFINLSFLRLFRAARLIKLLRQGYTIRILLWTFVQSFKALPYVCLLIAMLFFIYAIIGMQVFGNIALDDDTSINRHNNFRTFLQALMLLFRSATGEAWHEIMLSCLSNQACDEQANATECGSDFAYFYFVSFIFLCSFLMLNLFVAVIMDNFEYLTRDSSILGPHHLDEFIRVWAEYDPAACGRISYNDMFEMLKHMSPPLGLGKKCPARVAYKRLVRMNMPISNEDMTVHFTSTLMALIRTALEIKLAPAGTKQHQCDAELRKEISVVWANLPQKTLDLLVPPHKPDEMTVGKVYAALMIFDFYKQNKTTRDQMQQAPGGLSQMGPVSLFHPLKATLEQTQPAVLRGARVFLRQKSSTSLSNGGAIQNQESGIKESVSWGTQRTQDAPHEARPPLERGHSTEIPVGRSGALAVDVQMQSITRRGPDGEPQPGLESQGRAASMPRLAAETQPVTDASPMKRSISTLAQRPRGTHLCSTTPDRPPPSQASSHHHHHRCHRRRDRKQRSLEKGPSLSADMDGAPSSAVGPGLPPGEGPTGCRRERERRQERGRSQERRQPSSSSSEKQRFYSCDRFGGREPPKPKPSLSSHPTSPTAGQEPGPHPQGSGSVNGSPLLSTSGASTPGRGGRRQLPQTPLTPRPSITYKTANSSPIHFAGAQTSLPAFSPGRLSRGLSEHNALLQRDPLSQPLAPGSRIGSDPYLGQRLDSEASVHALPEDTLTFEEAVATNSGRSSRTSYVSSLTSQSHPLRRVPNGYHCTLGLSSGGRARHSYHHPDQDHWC
T1 sequence (P54289 25-956 partner limits assumed): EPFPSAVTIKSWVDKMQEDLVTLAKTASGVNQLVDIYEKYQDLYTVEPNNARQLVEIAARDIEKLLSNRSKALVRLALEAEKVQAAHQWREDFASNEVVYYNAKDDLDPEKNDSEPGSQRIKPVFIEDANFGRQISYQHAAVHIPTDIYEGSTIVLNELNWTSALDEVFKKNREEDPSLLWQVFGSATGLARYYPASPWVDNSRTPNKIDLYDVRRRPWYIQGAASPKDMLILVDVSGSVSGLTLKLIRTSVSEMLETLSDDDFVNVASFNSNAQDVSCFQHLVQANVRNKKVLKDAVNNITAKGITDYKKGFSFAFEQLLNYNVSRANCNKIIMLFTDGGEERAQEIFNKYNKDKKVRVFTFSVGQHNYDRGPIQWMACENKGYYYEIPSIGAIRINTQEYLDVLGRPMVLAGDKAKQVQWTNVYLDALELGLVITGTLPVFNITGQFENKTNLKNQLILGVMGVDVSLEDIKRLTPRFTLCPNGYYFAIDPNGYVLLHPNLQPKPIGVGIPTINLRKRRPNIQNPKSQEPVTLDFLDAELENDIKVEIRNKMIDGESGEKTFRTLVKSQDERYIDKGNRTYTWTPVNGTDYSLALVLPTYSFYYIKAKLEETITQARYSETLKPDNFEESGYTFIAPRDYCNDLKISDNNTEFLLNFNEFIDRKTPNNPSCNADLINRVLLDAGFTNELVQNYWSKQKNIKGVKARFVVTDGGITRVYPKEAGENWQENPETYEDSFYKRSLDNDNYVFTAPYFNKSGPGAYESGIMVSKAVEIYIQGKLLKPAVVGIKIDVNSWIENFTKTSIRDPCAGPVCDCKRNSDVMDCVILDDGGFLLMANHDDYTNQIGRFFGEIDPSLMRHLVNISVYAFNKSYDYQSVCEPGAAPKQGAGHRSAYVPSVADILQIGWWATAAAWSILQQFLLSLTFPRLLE
T1 sequence (P54289 957-1103 partner limits assumed): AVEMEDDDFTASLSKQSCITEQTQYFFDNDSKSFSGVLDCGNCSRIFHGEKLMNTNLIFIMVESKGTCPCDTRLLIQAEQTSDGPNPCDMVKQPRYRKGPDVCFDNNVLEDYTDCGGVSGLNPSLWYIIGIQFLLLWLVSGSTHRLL
T1 sequence (P54284 whole entry partner): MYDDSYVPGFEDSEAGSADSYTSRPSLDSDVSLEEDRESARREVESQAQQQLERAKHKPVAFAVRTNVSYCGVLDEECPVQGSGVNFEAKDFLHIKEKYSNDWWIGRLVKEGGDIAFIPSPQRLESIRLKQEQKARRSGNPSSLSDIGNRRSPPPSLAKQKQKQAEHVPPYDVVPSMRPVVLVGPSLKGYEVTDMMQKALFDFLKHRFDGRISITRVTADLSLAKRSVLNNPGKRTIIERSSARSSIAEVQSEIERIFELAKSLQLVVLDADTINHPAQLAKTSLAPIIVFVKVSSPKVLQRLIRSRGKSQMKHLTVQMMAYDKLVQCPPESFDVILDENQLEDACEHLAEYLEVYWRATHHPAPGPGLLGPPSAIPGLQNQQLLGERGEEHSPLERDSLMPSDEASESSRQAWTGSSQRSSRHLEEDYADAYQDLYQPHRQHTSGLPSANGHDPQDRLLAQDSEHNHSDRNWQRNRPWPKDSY

SMILES: CC(C)C[C@H](NC(=O)N1CCCCCC1)C(=O)N[C@@H](Cc1ccc(OCc2ccccc2)cc1)C(=O)NCCN1CCCC1=O [Example 170, [S-(R*,R*)]-Azepane-1-carboxylic acid (1-{2-(4-benzyloxy-phenyl)-1-[2-(2-oxo-pyrrolidin-1yl)-ethylcarbamoyl]-ethylcarbamoyl}-3-methyl-butyl)-amide]
- IC50: 1300 nM

SMILES: CC(C)C[C@H](NC(=O)c1cccnc1)C(=O)N[C@@H](Cc1ccc(OCc2ccccc2)cc1)C(=O)OC(C)(C)C (relative stereo) [Example 124, [S-(R*,R*)]-3-(4-Benzyloxy-phenyl)-2-{4-methyl-2-[(pyridine-3-carbonyl)-amino]pentanoylamino}-propionic acid tert-butyl ester]
- Inhibition of Calcium Flux in IMR-32 Cells % Inhibition at 10 μM: 60%

SMILES: CC(C)C[C@H](NC(=O)N1CCCCCC1)C(=O)N[C@@H](Cc1ccc(OCc2ccccc2)cc1)C(=O)N1CC(C)OC(C)C1 (stereo partly drawn) [Example 199, [S-(R*,R*)]-Azepane-1-carboxylic acid {1-[1-(4-benzyloxy-benzyl)-2-(2,6-dimethyl-morpholin-4-yl)-2-oxo-ethylcarbamoyl]-3-methyl-butyl}-amide]
- inhibition at 1 µM: 36%
- inhibition at 10 µM: 86%
- IC50: 1800 nM

SMILES: CC(C)C[C@H](NC(=O)N1CCCCCC1)C(=O)N[C@@H](Cc1ccc(OCc2ccccc2)cc1)C(=O)N1CCC(Cc2ccccc2)CC1 [Example 265, [S-(R*,R*)]-Azepane-1-carboxylic acid {1-[1-(4-benzyloxy-benzyl)-2-(4-benzyl-piperidin-1-yl)-2-oxo-ethylcarbamoyl]-3-methyl-butyl}-amide]
- IC50: 1000 nM

SMILES: CCN(CC)C(=O)C1CCCN(C(=O)C(Cc2ccc(OCc3ccccc3)cc2)NC(=O)C(CC(C)C)NC(=O)N2CCCCCC2)C1 (stereo not drawn) [Example 188, Azepane-1-carboxylic acid {1-[1-(4-benzyloxy-benzyl)-2-(3-diethylcarbamoyl-piperidin-1-yl)-2-oxo-ethylcarbamoyl]-3-methyl-butyl}-amide]
- IC50: 780 nM

SMILES: CC(C)C[C@H](NC(=O)NC1CC1c1ccccc1)C(=O)N[C@@H](Cc1ccc(OCc2ccccc2)cc1)C(=O)OC(C)(C)C (relative stereo) [Example 75, [S-(R*,R*)]-3-(4-Benzyloxy-phenyl)-2-{4-methyl-2-[3-(2-phenyl-cyclopropyl)-ureido]-pentanoylamino}-propionic acid tert-butyl ester]
- Inhibition of Calcium Flux in IMR-32 Cells % Inhibition at 1 μM: 28%

SMILES: CC(C)C[C@H](NS(=O)(=O)c1cccs1)C(=O)N[C@@H](Cc1ccc(OCc2ccccc2)cc1)C(=O)OC(C)(C)C (relative stereo) [Example 107, [S-(R*,R*)]-3-(4-Benzyloxy-phenyl)-2-[4-methyl-2-(thiophene-2-sulfonylamino)-pentanoylamino]-propionic acid tert-butyl ester]
- Inhibition of Calcium Flux in IMR-32 Cells % Inhibition at 10 μM: 57%

SMILES: CC(C)C[C@H](NC(=O)N1CCCCCC1)C(=O)N[C@@H](Cc1ccc(OCc2ccccc2)cc1)C(=O)Nc1nccs1 [Example 207, [S-(R*,R*)]-Azepane-1-carboxylic acid {1-[2-(4-benzyloxy-phenyl)-1-(thiazol-2-ylcarbamoyl)-ethylcarbamoyl]-3-methyl-butyl}-amide]
- inhibition at 1 µM: 21%
- inhibition at 10 µM: 59%
- IC50: 6200 nM

SMILES: CC(C)C[C@H](NC(=O)N1CCCCCC1)C(=O)N[C@@H](Cc1ccc(OCc2ccccc2)cc1)C(=O)NCCc1ccc(O)cc1 (relative stereo) [Example 225, [S-(R*,R*)]-Azepane-1-carboxylic acid (1-{2-(4-benzyloxy-phenyl)-1-[2-(4-hydroxy-phenyl)-ethylcarbamoyl]-ethylcarbamoyl}-3-methyl-butyl)-amide]
- Inhibition of Calcium Flux in IMR-32 Cells % Inhibition at 1 μM: 55%
- Inhibition of Calcium Flux in IMR-32 Cells % Inhibition at 10 μM: 94%

SMILES: CC(C)C[C@H](NC(=O)N1CCCCCC1)C(=O)N[C@@H](Cc1ccc(OCc2ccccc2)cc1)C(=O)NCCN(C)C [Example 175, [S-(R*,R*)]-Azepane-1-carboxylic acid {1-[2-(4-benzyloxy-phenyl)-1-(2-dimethylamino-ethylcarbamoyl)-ethylcarbamoyl]-3-methyl-butyl}-amide]
- IC50: 2700 nM

SMILES: CCC(CO)(CO)NC(=O)[C@H](Cc1ccc(OCc2ccccc2)cc1)NC(=O)[C@H](CC(C)C)NC(=O)N1CCCCCC1 (relative stereo) [Example 229, [S-(R*,R*)]-Azepane-1-carboxylic acid {1-[2-(4-benzyloxy-phenyl)-1-(1,1-bis-hydroxymethyl-propylcarbamoyl)-ethylcarbamoyl]-3-methyl-butyl}-amide]
- Inhibition of Calcium Flux in IMR-32 Cells % Inhibition at 1 μM: 30%
- Inhibition of Calcium Flux in IMR-32 Cells % Inhibition at 10 μM: 80%

SMILES: CC(C)C[C@H](NC(=O)c1ccc2c(c1)OCO2)C(=O)N[C@@H](Cc1ccc(OCc2ccccc2)cc1)C(=O)OC(C)(C)C (relative stereo) [Example 97, [S-(R*,R*)]-2-{2-[(Benzo[1,3]dioxole-5-carbonyl)-amino]-4-methyl-pentanoylamino}-3-(4-benzyloxy-phenyl)-propionic acid tert-butyl ester]
- Inhibition of Calcium Flux in IMR-32 Cells % Inhibition at 1 μM: 30%

SMILES: CC(C)C[C@H](NS(=O)(=O)c1cccc2nsnc12)C(=O)C[C@H](Cc1ccc(OCc2ccccc2)cc1)C(=O)OC(C)(C)C (relative stereo) [Example 102, [S-(R*,R*)]-5-(Benzo[1,2,5]thiadiazole-4-sulfonylamino)-2-(4-benzyloxybenzyl)-7-methyl-4-oxo-octanoic acid tert-butyl ester]
- Inhibition of Calcium Flux in IMR-32 Cells % Inhibition at 10 μM: 75%

SMILES: CC(C)C[C@H](NC(=O)C(F)(F)C(F)(F)F)C(=O)C[C@H](Cc1ccc(OCc2ccccc2)cc1)C(=O)OC(C)(C)C (relative stereo) [Example 127, [S-(R*,R*)]-2-(4-Benzyloxy-benzyl)-7-methyl-4-oxo-5-(2,2,3,3,3-pentafluoro-propionylamino)-octanoic acid tert-butyl ester]
- Inhibition of Calcium Flux in IMR-32 Cells % Inhibition at 10 μM: 61%

SMILES: CC(C)C[C@H](NC(=O)N1CCCCCC1)C(=O)NC(Cc1ccc(OCc2ccccc2)cc1)C(=O)N[C@@H]1CN2CCC1CC2 (stereo partly drawn) [Example 182, Azepane-1-carboxylic acid {(S)-1-[-1-[(S)-1-aza-bicyclo [2.2.2]-3-ylcarbamoyl]-2-(4-benzyloxy-phenyl)-ethylcarbamoyl]-3-methyl-butyl}-amide]
- IC50: 7700 nM

SMILES: CC(C)C[C@H](NC(=S)Nc1ccc(C(C)C)cc1)C(=O)N[C@@H](Cc1ccc(OCc2ccccc2)cc1)C(=O)OC(C)(C)C (relative stereo) [Example 43, [S-(R*,R*)]-3-(4-Benzyloxy-phenyl)-2-{2-[3-(4-isopropyl-phenyl)-thioureido]-4-methyl-pentanoylamino}-propionic acid, tert-butyl ester]
- Inhibition of Calcium Flux in IMR-32 Cells % Inhibition at 1 μM: 17%
- Inhibition of Calcium Flux in IMR-32 Cells % Inhibition at 10 μM: 38%

SMILES: COC(=O)C(Cc1ccccc1)NC(=O)NC(CC(C)C)C(=O)NC(Cc1ccc(OCc2ccccc2)cc1)C(=O)OC(C)(C)C (stereo not drawn) [Example 66, [S-(R*,R*)]-3-(4-Benzyloxy-phenyl)-{2-[3-(1-methoxycarbonyl-2-phenyl-ethyl)-ureido]-4-methyl-pentanoylamino}-propionic acid tert-butyl ester] ({OMe-Phe-CO}-Leu-Tyr(Bn)-OtBu; configuration not given here)
- Inhibition of Calcium Flux in IMR-32 Cells % Inhibition at 1 μM: 42%

SMILES: CC(C)C[C@H](NC(=O)N1CCCCCC1)C(=O)N[C@@H](Cc1ccc(OCc2ccccc2)cc1)C(=O)Nc1ccc(N(C)C)cc1 (relative stereo) [Example 215, [S-(R*,R*)]-Azepane-1-carboxylic acid {1-[2-(4-benzyloxy-phenyl)-1-(4-dimethylamino-phenylcarbamoyl)-ethylcarbamoyl]-3-methyl-butyl}-amide]
- Inhibition of Calcium Flux in IMR-32 Cells % Inhibition at 1 μM: 35%
- Inhibition of Calcium Flux in IMR-32 Cells % Inhibition at 10 μM: 44%

SMILES: CC(C)C[C@H](NC(=O)N1CCCCCC1)C(=O)N[C@@H](Cc1ccc(OCc2ccccc2)cc1)C(=O)N1CCN(CCOCCO)CC1 (relative stereo) [Example 228, [S-(R*,R*)]-Azepane-1-carboxylic acid-[1-(1-(4-benzyloxy-benzyl)-2-{4-[2-(2-hydroxy-ethoxy)-ethyl]-piperazin-1-yl}-2-oxo-ethylcarbamoyl)-3-methyl-butyl]-amide]
- Inhibition of Calcium Flux in IMR-32 Cells % Inhibition at 1 μM: 24%
- Inhibition of Calcium Flux in IMR-32 Cells % Inhibition at 10 μM: 82%

SMILES: CC(C)C[C@H](NC(=O)N1CCCCCC1)C(=O)N[C@@H](Cc1ccc(OCc2ccccc2)cc1)C(=O)NCc1cccc(I)c1 (relative stereo) [Example 241, [S-(R*,R*)]-Azepane-1-carboxylic acid {1-[2-(4-benzyloxy-phenyl)-1-(3-iodo-benzylcarbamoyl)-ethylcarbamoyl]-3-methyl-butyl}-amide]
- Inhibition of Calcium Flux in IMR-32 Cells % Inhibition at 1 μM: 53%
- Inhibition of Calcium Flux in IMR-32 Cells % Inhibition at 10 μM: 83%

SMILES: CC(C)C[C@H](NC(=O)N1CCCCCC1)C(=O)N[C@@H](Cc1ccc(OCc2ccccc2)cc1)C(=O)NCCc1c[nH]cn1 [Example 172, [S-(R*,R*)]-Azepane-1-carboxylic acid (1-{2-(4-benzyloxy-phenyl)-1-[2-(1H-imidazol-4-yl)ethylcarbamoyl]-ethylcarbamoyl}-3-methyl-butyl)-amide]
- IC50: 2300 nM

SMILES: CC(=O)Nc1ccc(NC(=O)[C@H](Cc2ccc(OCc3ccccc3)cc2)NC(=O)[C@H](CC(C)C)NC(=O)N2CCCCCC2)cc1 (relative stereo) [Example 216, [S-(R*,R*)]-Azepane-1-carboxylic acid {1-[1-(4-acetylamino-phenylcarbamoyl)-2-(4-benzyloxy-phenyl)-ethylcarbamoyl]-3-methyl-butyl}-amide]
- Inhibition of Calcium Flux in IMR-32 Cells % Inhibition at 1 μM: 16%
- Inhibition of Calcium Flux in IMR-32 Cells % Inhibition at 10 μM: 37%
